Measured values from patent US9723840B2 (SYNGENTA PARTICIPATIONS AG, priority 2013, dated 2017).

Experiments:
Format in all cases: in vivo
[1] = test system: Setaria faberi; test: Post-emergence herbicidal activity, SETFA; design: key: 5=total damage to plant; 0=no damage to plant; conditions: 1000 g/Ha, post-emergence spray (8 days cultivation), evaluated after 13 days, scale 0-5
Description: (§1) Seeds of a variety of test species were sown in standard soil in pots. After 8 days cultivation (post-emergence) under controlled conditions in a glasshouse (at 24/16° C., day/night; 14 hours light; 65% humidity), the plants were sprayed with an aqueous spray solution derived from the formulation of the technical active ingredient in acetone/water (50:50) solution containing 0.5% Tween 20 (polyoxyethelyene sorbitan monolaurate, CAS RN 9005-64-5). The test plants were then grown in a glasshouse under controlled conditions (at 24/16° C., day/night; 14 hours light; 65% humidity) and watered twice daily. After 13 days, the test was evaluated (5=total damage to plant; 0=no damage to plant).

[2] = test system: Alopecurus myosuroides; test: Pre-emergence herbicidal activity, ALOMY; conditions: 1000 g/Ha, pre-emergence spray, evaluated after 13 days, scale 0-5
Description: as §1, with “After” for “After 8 days”, “for one day (pre-emergence)” for “(post-emergence)”

[3] = test system: Amaranthus retroflexus; test: Post-emergence herbicidal activity, AMARE; design: key: 5=total damage to plant; 0=no damage to plant; conditions: 1000 g/Ha, post-emergence spray (8 days cultivation), evaluated after 13 days, scale 0-5
Description: as §1

[4] = test system: Echinochloa crus-galli; test: Post-emergence herbicidal activity, ECHCG; design: key: 5=total damage to plant; 0=no damage to plant; conditions: 1000 g/Ha, post-emergence spray (8 days cultivation), evaluated after 13 days, scale 0-5
Description: as §1

[5] = test system: Abutilon theophrasti; test: Post-emergence herbicidal activity, ABUTH; design: key: 5=total damage to plant; 0=no damage to plant; conditions: 1000 g/Ha, post-emergence spray (8 days cultivation), evaluated after 13 days, scale 0-5
Description: as §1

[6] = test system: Amaranthus retroflexus; test: Pre-emergence herbicidal activity, AMARE; design: key: 5=total damage to plant; 0=no damage to plant; conditions: 1000 g/Ha, pre-emergence spray, evaluated after 13 days, scale 0-5
Description: as §1, with “After” for “After 8 days”, “for one day (pre-emergence)” for “(post-emergence)”

[7] = test system: Echinochloa crus-galli; test: Pre-emergence herbicidal activity, ECHCG; design: key: 5=total damage to plant; 0=no damage to plant; conditions: 1000 g/Ha, pre-emergence spray, evaluated after 13 days, scale 0-5
Description: as §1, with “After” for “After 8 days”, “for one day (pre-emergence)” for “(post-emergence)”

[8] = test system: Abutilon theophrasti; test: Pre-emergence herbicidal activity, ABUTH; design: key: 5=total damage to plant; 0=no damage to plant; conditions: 1000 g/Ha, pre-emergence spray, evaluated after 13 days, scale 0-5
Description: as §1, with “After” for “After 8 days”, “for one day (pre-emergence)” for “(post-emergence)”

[9] = test system: Setaria faberi; test: Pre-emergence herbicidal activity, SETFA; design: key: 5=total damage to plant; 0=no damage to plant; conditions: 1000 g/Ha, pre-emergence spray, evaluated after 13 days, scale 0-5
Description: as §1, with “After” for “After 8 days”, “for one day (pre-emergence)” for “(post-emergence)”

[10] = test system: Zea mays; test: Pre-emergence herbicidal activity, ZEAMX; conditions: 1000 g/Ha, pre-emergence spray, evaluated after 13 days, scale 0-5
Description: as §1, with “After” for “After 8 days”, “for one day (pre-emergence)” for “(post-emergence)”

[11] = test system: Zea mays; test: Post-emergence herbicidal activity, ZEAMX; design: key: 5=total damage to plant; 0=no damage to plant; conditions: 1000 g/Ha, post-emergence spray (8 days cultivation), evaluated after 13 days, scale 0-5
Description: as §1

[12] = test system: Alopecurus myosuroides; test: Post-emergence herbicidal activity, ALOMY; design: key: 5=total damage to plant; 0=no damage to plant; conditions: 1000 g/Ha, post-emergence spray (8 days cultivation), evaluated after 13 days, scale 0-5
Description: as §1

Which results are given for `CN1CC(O)N(c2cc(C(F)(F)F)cnn2)C1=O` (stereo not drawn) [Example A7, 4-hydroxy-1-methyl-3-[5-(trifluoromethyl)pyridazin-3-yl]imidazolidin-2-one]?
SETFA damage score, application post-emergence [1]: 5; ALOMY damage score, application pre-emergence [2]: 4; AMARE damage score, application post-emergence [3]: 5; ECHCG damage score, application post-emergence [4]: 5; ABUTH damage score, application post-emergence [5]: 5; AMARE damage score, application pre-emergence [6]: 5; ECHCG damage score, application pre-emergence [7]: 5; ABUTH damage score, application pre-emergence [8]: 5; SETFA damage score, application pre-emergence [9]: 5; ZEAMX damage score, application pre-emergence [10]: 2; ZEAMX damage score, application post-emergence [11]: 5; ALOMY damage score, application post-emergence [12]: 5

For `CON1C(=O)N(c2ccc(C(=O)NC(C)(C)C)nn2)C(O)C1C` (stereo not drawn) [Example A14], which “SETFA damage score, application post-emergence” value [1] is on record?
Its value is 5.

And the “ALOMY damage score, application pre-emergence” value [2]?
Its value is 4.

And the “AMARE damage score, application post-emergence” value [3]?
The value was 5.

What about the “ECHCG damage score, application post-emergence” value [4] of the same molecule?
Its value is 5.

And the “ABUTH damage score, application post-emergence” value [5]?
Its value is 5.

And the “AMARE damage score, application pre-emergence” value [6]?
The value was 5.

And the “ECHCG damage score, application pre-emergence” value [7]?
The value was 4.

And the “ABUTH damage score, application pre-emergence” value [8]?
Its value is 5.

And the “SETFA damage score, application pre-emergence” value [9]?
Its value is 4.

What about the “ZEAMX damage score, application pre-emergence” value [10] of the same molecule?
Its value is 2.

What about the “ZEAMX damage score, application post-emergence” value [11] of the same molecule?
Its value is 5.

And the “ALOMY damage score, application post-emergence” value [12]?
The value was 5.

What does the source list for `CC1C(O)N(c2cc(C(C)(C)F)c(-c3ccccc3)nn2)C(=O)N1C` (stereo not drawn) [Example A3]?
SETFA damage score, application post-emergence [1]: 5; ALOMY damage score, application pre-emergence [2]: 4; AMARE damage score, application post-emergence [3]: 5; ECHCG damage score, application post-emergence [4]: 5; ABUTH damage score, application post-emergence [5]: 5; AMARE damage score, application pre-emergence [6]: 5; ECHCG damage score, application pre-emergence [7]: 4; ABUTH damage score, application pre-emergence [8]: 5; SETFA damage score, application pre-emergence [9]: 5; ZEAMX damage score, application pre-emergence [10]: 3; ZEAMX damage score, application post-emergence [11]: 4; ALOMY damage score, application post-emergence [12]: 4

With `CN1CC(O)N(c2cc(C(F)(F)F)c(Cl)nn2)C1=O` (stereo not drawn) [Example A5, 3-[6-chloro-5-(trifluoromethyl)pyridazin-3-yl]-4-hydroxy-1-methyl-imidazolidin-2-one] as the molecule, how does the “SETFA damage score, application post-emergence” value [1] read?
Its value is 5.

What about the “ALOMY damage score, application pre-emergence” value [2] of the same molecule?
Its value is 4.

And the “AMARE damage score, application post-emergence” value [3]?
Its value is 5.

What about the “ECHCG damage score, application post-emergence” value [4] of the same molecule?
Its value is 5.

And the “ABUTH damage score, application post-emergence” value [5]?
Its value is 5.

What about the “AMARE damage score, application pre-emergence” value [6] of the same molecule?
Its value is 5.

What about the “ECHCG damage score, application pre-emergence” value [7] of the same molecule?
Its value is 4.

And the “ABUTH damage score, application pre-emergence” value [8]?
Its value is 5.

And the “SETFA damage score, application pre-emergence” value [9]?
Its value is 5.

What about the “ZEAMX damage score, application pre-emergence” value [10] of the same molecule?
The value was 2.

What about the “ZEAMX damage score, application post-emergence” value [11] of the same molecule?
The value was 4.

And the “ALOMY damage score, application post-emergence” value [12]?
The value was 4.

Which “SETFA damage score, application post-emergence” value [1] does the source give for `CON1C(=O)N(c2cc(C(C)(F)F)c(Cl)nn2)C(O)C1C` (stereo not drawn) [Example A12] here?
Its value is 5.

What about the “ALOMY damage score, application pre-emergence” value [2] of the same molecule?
Its value is 3.

What about the “AMARE damage score, application post-emergence” value [3] of the same molecule?
Its value is 5.

And the “ECHCG damage score, application post-emergence” value [4]?
Its value is 5.

What about the “ABUTH damage score, application post-emergence” value [5] of the same molecule?
Its value is 5.

What about the “AMARE damage score, application pre-emergence” value [6] of the same molecule?
The value was 5.

And the “ECHCG damage score, application pre-emergence” value [7]?
The value was 5.

What about the “ABUTH damage score, application pre-emergence” value [8] of the same molecule?
The value was 5.

What about the “SETFA damage score, application pre-emergence” value [9] of the same molecule?
The value was 5.

What about the “ZEAMX damage score, application pre-emergence” value [10] of the same molecule?
Its value is 3.

And the “ZEAMX damage score, application post-emergence” value [11]?
The value was 3.

And the “ALOMY damage score, application post-emergence” value [12]?
Its value is 5.

How did the “SETFA damage score, application post-emergence” value [1] turn out when `CCOC1C(O)N(c2cc(C(C)(C)F)c(Cl)nn2)C(=O)N1C` (stereo not drawn) [Example A9, 1-[6-chloro-5-(1-fluoro-1-methyl-ethyl)pyridazin-3-yl]-4-ethoxy-5-hydroxy-3-methyl-imidazolidin-2-one] was run?
The value was 5.

And the “ALOMY damage score, application pre-emergence” value [2]?
The value was 4.

And the “AMARE damage score, application post-emergence” value [3]?
The value was 5.

What about the “ECHCG damage score, application post-emergence” value [4] of the same molecule?
Its value is 5.

What about the “ABUTH damage score, application post-emergence” value [5] of the same molecule?
Its value is 5.

What about the “AMARE damage score, application pre-emergence” value [6] of the same molecule?
The value was 5.

What about the “ECHCG damage score, application pre-emergence” value [7] of the same molecule?
Its value is 5.

And the “ABUTH damage score, application pre-emergence” value [8]?
Its value is 5.

And the “SETFA damage score, application pre-emergence” value [9]?
The value was 5.

What about the “ZEAMX damage score, application pre-emergence” value [10] of the same molecule?
The value was 3.

What about the “ZEAMX damage score, application post-emergence” value [11] of the same molecule?
Its value is 5.

What about the “ALOMY damage score, application post-emergence” value [12] of the same molecule?
The value was 5.

With `COC1C(O)N(c2cc(C(C)(C)F)c(Cl)nn2)C(=O)N1C` (stereo not drawn) [Example A8] as the molecule, how does the “SETFA damage score, application post-emergence” value [1] read?
The value was 5.

What about the “ALOMY damage score, application pre-emergence” value [2] of the same molecule?
The value was 4.

And the “AMARE damage score, application post-emergence” value [3]?
The value was 5.

What about the “ECHCG damage score, application post-emergence” value [4] of the same molecule?
The value was 5.

What about the “ABUTH damage score, application post-emergence” value [5] of the same molecule?
Its value is 5.

What about the “AMARE damage score, application pre-emergence” value [6] of the same molecule?
The value was 5.

What about the “ECHCG damage score, application pre-emergence” value [7] of the same molecule?
The value was 5.

What about the “ABUTH damage score, application pre-emergence” value [8] of the same molecule?
Its value is 5.

And the “SETFA damage score, application pre-emergence” value [9]?
The value was 5.

And the “ZEAMX damage score, application pre-emergence” value [10]?
Its value is 3.

What about the “ZEAMX damage score, application post-emergence” value [11] of the same molecule?
Its value is 4.

What about the “ALOMY damage score, application post-emergence” value [12] of the same molecule?
Its value is 4.

`CN1CC(O)N(c2cc(C(C)(C)F)c(Cl)nn2)C1=O` (stereo not drawn) [Example A1] was tested. Which “SETFA damage score, application post-emergence” value [1] did it give?
The value was 5.

And the “ALOMY damage score, application pre-emergence” value [2]?
Its value is 4.

And the “AMARE damage score, application post-emergence” value [3]?
The value was 5.

And the “ECHCG damage score, application post-emergence” value [4]?
Its value is 5.

And the “ABUTH damage score, application post-emergence” value [5]?
Its value is 5.

What about the “AMARE damage score, application pre-emergence” value [6] of the same molecule?
Its value is 5.

And the “ECHCG damage score, application pre-emergence” value [7]?
The value was 5.

What about the “ABUTH damage score, application pre-emergence” value [8] of the same molecule?
Its value is 5.

And the “SETFA damage score, application pre-emergence” value [9]?
Its value is 5.

What about the “ZEAMX damage score, application pre-emergence” value [10] of the same molecule?
The value was 4.

What about the “ZEAMX damage score, application post-emergence” value [11] of the same molecule?
Its value is 5.

And the “ALOMY damage score, application post-emergence” value [12]?
The value was 5.

What does the source list for `CCOC1C(O)N(c2cc(C(C)(F)F)c(Cl)nn2)C(=O)N1C` (stereo not drawn) [Example A10]?
SETFA damage score, application post-emergence [1]: 5; ALOMY damage score, application pre-emergence [2]: 4; AMARE damage score, application post-emergence [3]: 5; ECHCG damage score, application post-emergence [4]: 5; ABUTH damage score, application post-emergence [5]: 5; AMARE damage score, application pre-emergence [6]: 5; ECHCG damage score, application pre-emergence [7]: 4; ABUTH damage score, application pre-emergence [8]: 5; SETFA damage score, application pre-emergence [9]: 5; ZEAMX damage score, application pre-emergence [10]: 4; ZEAMX damage score, application post-emergence [11]: 4; ALOMY damage score, application post-emergence [12]: 5
